Patent publication US20260103471A1, “CYCLIC UREA THIAZOLYL COMPOUNDS FOR TREATMENT OF HSV” (Assembly Biosciences, Inc., priority 2022, published 2026)
Like-named read-outs stand apart in the source and are kept apart here.

Columns and labels:
HSV-1 = HSV-1 Antiviral Assay (Vero cells, cell viability); assay type: cell-based; conditions: Human alphaherpesvirus 1, 96 h, Vero cells, read-out: HSV-1 EC50
Procedure, shortened: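 Vero cells (2.5×10^3/well) received 8-point 3-fold compound dilutions in 2% FBS medium (0.5% DMSO), then 80 TCID50 HSV-1. After 4 days at 37 °C, cell viability was measured by CellTiter-Glo luminescence.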

HSV-2 G strain = assay: HSV-2 Antiviral Assay (Vero cells, cell viability); assay type: cell-based; conditions: Human alphaherpesvirus 2, Vero, 120 h, Vero cells, 5 days
Procedure, shortened: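 Vero cells (1.0×10^4/well, attached overnight) given 8-point 3-fold compound dilutions (0.5% DMSO) then infected with 160 TCID50 HSV-2 G strain in 2% FBS medium for 5 days at 37 °C. Protection read as cell viability by WST-8 absorbance at 460 and 620 nm after 3 h.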

[1] = 80 TCID50 HSV-1, 4 days, cell viability
[2] = 160 TCID50 HSV-2 G strain, cell viability

| Compound | EC50 (HSV-1; [1]) [nM] | EC50 (HSV-2 G strain; [2]) [nM] | EC50 (HSV-1; 4 days) [nM] | EC50 (HSV-2 G strain) [nM] |
| --- | --- | --- | --- | --- |
| Cc1nc(N2CCCN(c3ccc(-c4ccc(C#CC(C)(C)O)cc4)cc3)C2=O)sc1S(N)(=O)=O [Compound 28] | 1000 to 5000 | 1000 to 5000 | – | – |
| Cc1nc(N2CCN(c3ccc(-c4cc(F)ccc4F)cc3)C2=O)sc1S(N)(=O)=O [Example 104] | – | – | 1740 | > 2000 |
| Cc1nc(N2CCCN(c3ccc(-c4cc(F)cc5c4cc(C#N)n5C)cc3)C2=O)sc1S(N)(=O)=O [Compound 293] | < 100 | < 100 | – | – |
| Cc1nc(N2CCCN(c3ccc(-c4cc(F)ccc4C#N)cc3)C2=O)sc1S(N)(=O)=O [Compound 24] | < 100 | < 100 | – | – |
| Cc1nc(N2CCCN(c3ccc(-c4ccccc4F)cc3)C2=O)sc1S(C)(=O)=O [Compound 164] | < 100 | < 100 | – | – |
| CNS(=O)(=O)c1sc(N2CCCN(c3ccc(-c4ccccc4F)cc3F)C2=O)nc1C [Compound 130] | < 100 | < 100 | – | – |
| CNc1cccc(-c2ccc(N3CCCN(c4nc(C)c(S(=O)(=O)NC)s4)C3=O)cc2)n1 [Compound 124] | < 100 | < 100 | – | – |
| CNS(=O)(=O)c1sc(N2CCCN(c3ccc(-c4cc(F)ccn4)cc3)C2=O)nc1C [Compound 121] | < 100 | < 100 | – | – |
| CNS(=O)(=O)c1sc(N2CCCN(c3ccc(-c4ccccc4F)cc3)C2=O)nc1C [Compound 120] | < 100 | < 100 | – | – |
| CC(=O)N1CC2(C1)CN(c1ccc(-c3cc(F)ccc3F)cc1)C(=O)N(c1nc(C)c(S(N)(=O)=O)s1)C2 [Compound 338] | 100 to 1000 | 100 to 1000 | – | – |
| Cc1nc(N2CCCN(Cc3cccc(-c4ccccc4)c3)C2=O)sc1S(N)(=O)=O [Compound 173] | < 100 | < 100 | – | – |
| Cc1nc(N2CCCN(c3ccc(-c4cccc(C(F)F)c4)cc3)C2=O)sc1S(N)(=O)=O [Compound 14] | < 100 | < 100 | – | – |
| Cc1nc(N2CCCN(c3ccc(-c4cccc5cn[nH]c45)cc3)C2=O)sc1S(N)(=O)=O [Compound 54] | 100 to 1000 | 100 to 1000 | – | – |
| Cc1nc(N2CCCN(c3ccc(-c4cc(F)cc5nsnc45)cc3)C2=O)sc1S(N)(=O)=O [Compound 259] | < 100 | < 100 | – | – |
| Cc1nc(N2CC3(COC3)CN(c3ccc(-c4cc(F)cc(-c5cnn(C(F)F)c5)c4F)cc3)C2=O)sc1S(N)(=O)=O [Compound 342] | < 100 | < 100 | – | – |
| Cc1nc(N2CCCN(c3ccc(-c4cc(F)cc(F)c4F)cc3)C2=O)sc1S(N)(=O)=O [Compound 7] | < 100 | < 100 | – | – |
| Cc1nc(N2CCCN(c3ccc(-c4cc(F)cc(-c5cnn(C)c5)c4F)cc3)C2=O)sc1S(N)(=O)=O [Compound 210] | < 100 | < 100 | – | – |
| CNS(=O)(=O)c1sc(N2CCCN(c3ccc(-c4nccs4)cc3)C2=O)nc1C [Compound 126] | < 100 | < 100 | – | – |
| Cc1nc(N2CCCN([C@H](C)c3cccc(-c4cc(F)ccc4F)c3)C2=O)sc1S(N)(=O)=O (single isomer, unassigned) [Compound 176] | 1000 to 5000 | 1000 to 5000 | – | – |

| Compound | EC50 (HSV-1; [1]) [nM] | EC50 (HSV-2 G strain; [2]) [nM] | EC50 (HSV-1; 4 days) [nM] | EC50 (HSV-2 G strain) [nM] |
| --- | --- | --- | --- | --- |
| Cc1nc(N2CC(C)(C)CN(c3ccc(-c4ccccc4F)cc3)C2=O)sc1S(N)(=O)=O [Compound 105] | < 100 | < 100 | – | – |
| Cc1nc(N2CC3(CC3)CN(c3ccc(-c4cc(F)ccc4F)cc3)C2=O)sc1[S@](C)(=N)=O (single isomer, unassigned) [Compound 156] | < 100 | < 100 | – | – |
| O=C1N(c2ccc(-c3cc(F)ccc3F)cc2)CCCN1c1ncc(S(=O)(=O)C2CC2)s1 [Compound 166] | 100 to 1000 | 100 to 1000 | – | – |
| Cc1nc(N2C[C@H](C(C)(C)O)CN(c3ccc(-c4cc(F)ccc4F)cc3)C2=O)sc1S(N)(=O)=O (single isomer, unassigned) [Compound 343] | < 100 | < 100 | – | – |
| Cc1nc(N2CC3(CC3)CN(c3ccc(-c4cc(F)ccc4F)cc3)C2=O)sc1S(C)(=N)=O (stereo not drawn) [Compound 155] | < 100 | < 100 | – | – |
| Cc1nc(N2CCCN(c3ccc(-c4ccccc4C(F)F)cc3)C2=O)sc1S(N)(=O)=O [Compound 12] | < 100 | < 100 | – | – |
| Cc1nc(N2CCCN(c3ccc(-c4nccc5ccccc45)cc3)C2=O)sc1S(N)(=O)=O [Compound 86] | 100 to 1000 | 100 to 1000 | – | – |
| Cc1nc(N2CCCN([C@@H](C)c3cccc(-c4cc(F)ccc4F)c3)C2=O)sc1S(N)(=O)=O (single isomer, unassigned) [Compound 175] | 1000 to 5000 | 1000 to 5000 | – | – |
| Cc1nc(N2CCCN(c3ccc(-c4cc(Cl)cc5ncsc45)cc3)C2=O)sc1S(N)(=O)=O [Compound 277] | < 100 | < 100 | – | – |
| Cc1nc(N2CCCN(c3ccc(-c4cc(F)cc5nonc45)cc3)C2=O)sc1S(N)(=O)=O [Compound 245] | < 100 | < 100 | – | – |
| Cc1nc(N2CCCN(c3ccc(-c4ccccc4F)c(F)c3)C2=O)sc1S(N)(=O)=O [Compound 95] | 100 to 1000 | 100 to 1000 | – | – |
| Cc1nc(N2CCCN(c3ccc(-c4cccnc4)cc3)C2=O)sc1S(N)(=O)=O [Compound 2] | 100 to 1000 | 100 to 1000 | – | – |
| CNS(=O)(=O)c1sc(N2CCCN(c3ccc(-c4ncccc4F)cc3)C2=O)nc1C [Compound 122] | < 100 | < 100 | – | – |
| Cc1nc(N2CCCN(c3ccc(-c4ncc(C(F)(F)F)s4)cc3)C2=O)sc1S(N)(=O)=O [Compound 45] | 1000 to 5000 | 1000 to 5000 | – | – |
| Cc1nc(N2CCCN(c3ccc(-c4cc(F)cc5nnsc45)cc3)C2=O)sc1S(N)(=O)=O [Compound 243] | < 100 | < 100 | – | – |
| Cc1nc(N2CCCN(c3ccc(-c4cc(F)ccc4F)cc3)C2=O)sc1[S@](C)(=N)=O (single isomer, unassigned) [Compound 141] | < 100 | < 100 | – | – |
| Cc1cc2cccc(-c3ccc(N4CCCN(c5nc(C)c(S(N)(=O)=O)s5)C4=O)cc3)c2s1 [Compound 73] | < 100 | < 100 | – | – |
| Cc1nc(N2CCCN(c3ccc(-c4cccc5cnccc45)cc3)C2=O)sc1S(N)(=O)=O [Compound 85] | < 100 | < 100 | – | – |
| Cc1nc(N2CCCN(c3ccc(-c4cc(F)cc(Br)c4F)cc3)C2=O)sc1S(N)(=O)=O [Compound 212] | < 100 | < 100 | – | – |

| Compound | EC50 (HSV-1; [1]) [nM] | EC50 (HSV-2 G strain; [2]) [nM] | EC50 (HSV-1; 4 days) [nM] | EC50 (HSV-2 G strain) [nM] |
| --- | --- | --- | --- | --- |
| Cc1nc(N2CCCN(c3ccc(-c4ccccc4Cl)cc3)C2=O)sc1S(N)(=O)=O [Compound 9] | < 100 | < 100 | – | – |
| Cc1nc(N2CCCN(c3ccc(-c4ccccc4F)cc3F)C2=O)sc1S(N)(=O)=O [Compound 96] | < 100 | < 100 | – | – |
| COc1ccccc1-c1ccc(N2CCCN(c3nc(C)c(S(N)(=O)=O)s3)C2=O)cc1 [Compound 10] | < 100 | < 100 | – | – |
| Cc1nc(N2CC3(COC3)CN(c3ccc(-c4cc(F)ccc4F)cc3)C2=O)sc1S(N)(=O)=O [Compound 339, 2-(8-(2′,5′-difluoro-[1,1′-biphenyl]-4-yl)-7-oxo-2-oxa-6,8-diazaspiro[3.5]nonan-6-yl)-4-methylthiazole-5-sulfonamide] | < 100 | < 100 | – | – |
| Cc1nc(N2CCCN(c3ccc(-c4ccnn4C)cc3)C2=O)sc1S(N)(=O)=O [Compound 40] | 1000 to 5000 | 1000 to 5000 | – | – |
| Cc1nc(N2CCCN(c3ccc(-c4cc(F)ccc4F)cc3)C2=O)sc1S(C)(=O)=O [Compound 161] | < 100 | < 100 | – | – |
| Cc1nc(N2CCCN(c3ccc(-c4cccc(F)c4)cc3)C2=O)sc1S(N)(=O)=O [Compound 13] | < 100 | < 100 | – | – |
| Cc1nc(N2CCCN(c3ccc(-c4cc(F)ccc4F)cc3)C2=O)sc1S(=O)(=O)NC1CC1 [Compound 117] | < 100 | < 100 | – | – |
| Cc1nc(N2CCCN(c3ccc(-c4cccc5[nH]c(=O)sc45)cc3)C2=O)sc1S(N)(=O)=O [Compound 78] | 100 to 1000 | 100 to 1000 | – | – |
| Cc1nc(N2CCCN(c3ccc(-c4ccccn4)cc3)C2=O)sc1S(=O)(=O)NC1CC1 [Compound 119] | < 100 | < 100 | – | – |
| Cc1nc(N2C[C@H](C#N)CN(c3ccc(-c4cc(F)ccc4F)cc3)C2=O)sc1S(N)(=O)=O (single isomer, unassigned) [Compound 361] | < 100 | < 100 | – | – |
| Cc1nc(N2CCCN(c3ccc(-c4cc(F)cc5ncsc45)cc3)C2=O)sc1S(N)(=O)=O [Compound 255] | < 100 | < 100 | – | – |
| Cc1nc(N2CC(C)CN(c3ccc(-c4cc(F)ccc4F)cc3)C2=O)sc1S(N)(=O)=O (stereo not drawn) [Compound 318] | < 100 | < 100 | – | – |
| Cc1nc(N2CCCCN(c3ccc(-c4ccccc4F)cc3)C2=O)sc1S(N)(=O)=O [Compound 102] | < 100 | < 100 | – | – |
| Cc1nc(N2CCCN(c3ccc(-c4cc(F)ccc4F)cc3)C2=O)sc1S(=O)(=O)NCCCO [Compound 417] | < 100 | < 100 | – | – |
| Cc1nc(N2CC(C(C)(C)F)CN(c3ccc(-c4cc(F)ccc4F)cc3)C2=O)sc1S(N)(=O)=O (stereo not drawn) [Compound 369] | < 100 | < 100 | – | – |
| Cc1nc(N2CC3(COC3)CN(c3ccc(-c4cc(F)ccc4F)cc3)C2=O)sc1S(C)(=O)=O [Compound 436] | < 100 | < 100 | – | – |
| Cc1nc(N2CCCN(c3ccc(-c4cccc5nn(C(C)C)cc45)cc3)C2=O)sc1S(N)(=O)=O [Compound 59] | 1000 to 5000 | 1000 to 5000 | – | – |
| Cc1nc(N2CCCN(c3ccc(-c4cccc5c4cnn5C(C)C)cc3)C2=O)sc1S(N)(=O)=O [Compound 56] | 100 to 1000 | 100 to 1000 | – | – |
